In PMC12040169 (PLOS Biology, 2025) one finds viability data, which are given here for 85 molecules.

The series is described as follows: in vitro. The settings on record: human, hela cells, % viability.
Consider `Cc1nc(C(F)(F)F)ccc1C(=O)NCC(C)(C)N1CCCCC1` [CBK281864], for which the viability at 28.5 h, 10 µM was determined as 98%. The value for `CCN(C(=O)c1n[nH]c2c1CCC2)C1CCN(C)CC1` [CBK281870] was 102%; that for `Cc1nc(C)c(C(=O)N2CCc3[nH]c4ccccc4c3C2)o1` [CBK281873] was 110%; that for `O=C(c1cnn2cccnc12)N1CCc2[nH]c3ccccc3c2C1` [CBK281874] was 93%. With `Oc1cc(CCc2ccc(F)cc2)nc2ccnn12` [CBK281876], the viability at 28.5 h, 10 µM came to 88.9%.

As for `Cn1nc2c(c1C(=O)NCC(C)(C)N1CCCCC1)CCCC2` [CBK281878], the viability at 28.5 h, 10 µM was found to be 94.4%.

Consider `CCn1c(C)nc2cc(NC(=O)c3oc(C)nc3C)ccc21` [CBK281881], for which the viability at 28.5 h, 10 µM was 106%. In the case of `Cc1nccn1CCC(=O)N1CCc2[nH]c3ccccc3c2C1` [CBK281882], the viability at 28.5 h, 10 µM turned out to be 111%. Take `CC(NC(=O)Cn1ccnc1-c1ccccc1)c1ccccn1` (stereo not shown) [CBK281885]: the viability at 28.5 h, 10 µM amounted to 103%.

As to `CC(NC(=O)c1cn(C)c(=O)c2ccccc12)c1ccccn1` (stereo not shown) [CBK281886], the viability at 28.5 h, 10 µM was 92.1%. On to `Cc1ccc2[nH]nc(C(=O)NC(C)c3ccccn3)c2c1` (stereo not shown) [CBK281887], for which the viability at 28.5 h, 10 µM worked out at 69.9%. For `CC(NC(=O)c1c2c(nn1C)CCCC2)c1ccccn1` (stereo not shown) [CBK281888], the viability at 28.5 h, 10 µM came to 95.2%. The same measure for `CC(NC(=O)CCc1cn(C)c2ccccc12)c1ccccn1` (stereo not shown) [CBK281889]: 93.1%. The same measure for `Cn1nccc1CN1CCCC(Cc2nc3ccccc3[nH]2)C1` (stereo not shown) [CBK281892]: 98.2%. The same measure for `Cc1ccc(C(Cn2cncc2-c2cn(C)nc2C)N(C)C)cc1` (stereo not shown) [CBK281896]: 98.7%; for `O=C(Cn1cccc2cc(-c3cccs3)nc1-2)NC1CC1` [CBK281897]: 108%. Turning to `Cc1oc2c(c1C(=O)NCCn1ccnc1C)CCCC2` [CBK281898], the viability at 28.5 h, 10 µM came to 97.1%. The value for `Cc1cc(C)n(CCCN(C)Cc2c(C)nc3ccccn23)n1` [CBK281901] was 90%; that for `CN(CCN1CCCCC1)C(=O)c1ccccc1Cn1cccn1` [CBK281904] was 105%; that for `CN(CCN1CCCCC1)C(=O)CCc1cn(C)c2ccccc12` [CBK281906] was 94.3%.

On to `O=C1CCCN1c1ccc(CN2CCN(C3CCCC3)C(=O)C2)cc1` [CBK281908], for which the viability at 28.5 h, 10 µM is 96.2%. The value for `Cn1c(=O)n(C)c2cc(CN3CCN(C4CCCC4)C(=O)C3)ccc21` [CBK281909] was 97.1%; that for `Cn1cc(C(=O)N2CCc3nc(-c4cccc(F)c4)sc3C2)cn1` [CBK281910] was 94.5%; that for `Cc1c(-c2cncn2CC(=O)NC(C)(C)C)[nH]c2ccccc12` [CBK281911] was 87.5%. The same measure for `Cn1cc(C(=O)N2CCc3nc(-c4ccccc4F)sc3C2)cn1` [CBK281914]: 89%. For `CN(C)c1ccc(CCNC(=O)c2cn3ccccc3n2)cc1` [CBK281916], the viability at 28.5 h, 10 µM is 87.4%. For `Cn1cc(C(=O)N2CCC(c3ccccc3)C2)c2ccccc2c1=O` (stereo not shown) [CBK281921], the viability at 28.5 h, 10 µM is 103%. Consider `CC(C)(CO)CCCn1cncc1-c1cnn(-c2ccccc2)c1` [CBK281922], for which the viability at 28.5 h, 10 µM was found to be 96.9%. The same measure for `C=CCN1CCc2cc(-c3cncn3CC(=O)NC(C)(C)C)ccc21` [CBK281923]: 86.7%; for `CCN1c2ccc(-c3cncn3CCCn3ccnc3C)cc2CC1C` (stereo not shown) [CBK281924]: 90.7%; for `O=C1CN(Cc2cnn(-c3ccc(F)cc3)c2)CCN1C1CCCC1` [CBK281926]: 86.5%. The same measure for `CN(C(=O)C1CC1)c1nc2c(s1)CCc1c-2cnn1C` [CBK281927]: 75.7%; for `CN(C(=O)c1ccco1)c1nc2c(s1)CCc1c-2cnn1C` [CBK281928]: 81.2%; for `CN(C(=O)Cc1ccsc1)c1nc2c(s1)CCc1c-2cnn1C` [CBK281929]: 82.4%. The value for `CCCN(C(=O)C1CC1)c1nc2c(s1)CCc1c-2cnn1C` [CBK281930] was 88.8%; that for `CN(C(=O)C1CCC1)c1nc2c(s1)CCc1c-2cnn1C` [CBK281931] was 75.9%.

As to `Cc1cc2c(o1)CCc1sc(N(C)C(=O)C3CCCO3)nc1-2` (stereo not shown) [CBK281932], the viability at 28.5 h, 10 µM was 80.3%. For `O=c1[nH]c2ccccc2cc1CNc1ccc(F)cc1F` [CBK281933], the viability at 28.5 h, 10 µM amounted to 84.1%. Consider `COc1ccc2cc(CNc3ccc(F)c(F)c3)c(=O)[nH]c2c1` [CBK281934], for which the viability at 28.5 h, 10 µM was determined as 83%.

For `Cc1ccc2[nH]c(=O)c(CNc3ccc4[nH]ncc4c3)cc2c1` [CBK281936], the viability at 28.5 h, 10 µM amounted to 73%.

For the molecule `O=C(CN1CCC(O)(c2ccccc2F)CC1)N1CCCCC1` [CBK281938], the viability at 28.5 h, 10 µM was determined as 103%. The value for `Cc1cc2cc3c(nc2cc1C)OCCNC3` [CBK281939] was 97.1%; that for `Cc1ccc2nc3c(cc2c1)CNCC(C)O3` (stereo not shown) [CBK281941] was 85.9%; that for `O=C(CN1C2CCC1CC(O)(c1ccccc1F)C2)NCC1CC1` (stereo not shown) [CBK281942] was 93.4%. The value for `O=C(C1CC1)N1CCCC(c2nc(-c3cccs3)no2)C1` (stereo not shown) [CBK281944] was 97.1%; that for `O=C1NC2(CCCCC2)C(=O)N1c1ccc(F)cc1F` [CBK281945] was 111%; that for `OC1(c2ccc(F)cc2)CC2CCC(C1)N2` (stereo not shown) [CBK281947] was 89.7%. The value for `Cc1cc(C2CCCCCN2Cc2cc(Cl)ccc2O)on1` (stereo not shown) [CBK281948] was 89.2%; that for `CC1CC(C)CN(CCCNC(=O)c2cc(-c3cccs3)no2)C1` (stereo not shown) [CBK281949] was 93%; that for `Cn1cc(C(=O)NCC(c2ccccc2F)N2CCCC2)ccc1=O` (stereo not shown) [CBK281950] was 83.9%. On to `Cc1nccn1CCC1CCN(C(=O)c2cnn(C)c2)CC1` [CBK281951], for which the viability at 28.5 h, 10 µM was found to be 89.3%. Regarding `CC(=O)N1CCC(C(=O)NCCc2cccc(C)c2)C1` (stereo not shown) [CBK281952], the viability at 28.5 h, 10 µM was found to be 110%.

Take `Cc1cc(CN(C)Cc2ccc(N3CCCC3)c(F)c2)n[nH]1` [CBK281953]: the viability at 28.5 h, 10 µM turned out to be 104%. The same measure for `Cc1nccn1CCC(=O)NCCc1ccc(N(C)C)cc1` [CBK281954]: 82.6%; for `CCN1CCC(CC(=O)N2CCC(c3ccccc3)C2)CC1` (stereo not shown) [CBK281958]: 79.5%.

`Cc1noc(C)c1CC(=O)N1CCC(c2ccccc2)C1` (stereo not shown) [CBK281959]: the viability at 28.5 h, 10 µM stood at 102%. Take `CCN1CCc2cc(CN3CCCC(Cn4ccnc4C)C3)ccc21` (stereo not shown) [CBK281965]: the viability at 28.5 h, 10 µM stood at 96.9%. For `CN(CCc1ccccn1)C(=O)C1CN(C(=O)C2CC23CCC3)C1` (stereo not shown) [CBK281969], the viability at 28.5 h, 10 µM stood at 104%. As to `O=C(CN1CCCC1Cn1cccn1)N1CCCc2ccccc21` (stereo not shown) [CBK281971], the viability at 28.5 h, 10 µM turned out to be 89%.

On to `Cc1ccc(C(C)(C)C(=O)N2CCC(CC(=O)N(C)C)CC2)cc1` [CBK281973], for which the viability at 28.5 h, 10 µM turned out to be 99.8%. With `Cc1nccn1CC1CCCN(Cc2nc3ccccc3n2C)C1` (stereo not shown) [CBK281975], the viability at 28.5 h, 10 µM worked out at 110%. The value for `Cc1cc(C)n(C2CCN(Cc3ccc(-n4ccnc4C)cc3)CC2)n1` [CBK281976] was 112%; that for `Cc1nccn1CCNC(=O)CC1C(=O)N(C)c2ccccc21` (stereo not shown) [CBK281977] was 101%.

In the case of `CC(C)(C)NC(=O)Cn1cncc1-c1[nH]c2ccccc2c1Cl` [CBK281981], the viability at 28.5 h, 10 µM turned out to be 105%. Consider `Cc1nc(C(F)(F)F)ccc1C(=O)NCCn1ccnc1C` [CBK281982], for which the viability at 28.5 h, 10 µM turned out to be 88.9%. `Cc1nccn1CCNC(=O)Cn1cnc2ccccc21` [CBK281983]: the viability at 28.5 h, 10 µM is 102%. On to `Cc1cc(CN(C)Cc2c(C)nn(-c3ccc(F)cc3)c2C)n[nH]1` [CBK281990], for which the viability at 28.5 h, 10 µM turned out to be 95%.

In the case of `CN1CCC(C(=O)Nc2cccc(Cn3cccn3)c2)C1` (stereo not shown) [CBK281991], the viability at 28.5 h, 10 µM was found to be 100%. The same measure for `CC(CNC(=O)CCc1cn(C)c2ccccc12)N1CCOCC1` (stereo not shown) [CBK281996]: 87.4%; for `CCn1nc(C)c(-c2cncn2CCCOc2cccc(C)c2)c1C` [CBK281997]: 98.2%; for `CCn1nc(C)c(-c2cncn2Cc2ccccc2CN(C)C)c1C` [CBK281998]: 88.1%. For the molecule `CCCC(=O)NCCn1nc(-c2ccccc2F)cc1CN(C)C` [CBK282000], the viability at 28.5 h, 10 µM amounted to 111%. As to `Cc1cc(N(C)C)cc(C2CCCN(C(=O)C3CCC3)C2)n1` (stereo not shown) [CBK282004], the viability at 28.5 h, 10 µM stood at 88.7%. For `CC(C)CC(=O)NCCn1nc(-c2ccccc2F)cc1CN(C)C` [CBK282005], the viability at 28.5 h, 10 µM was determined as 97.4%. The same measure for `CN(C)Cc1cc(-c2ccccc2F)nn1CCNC(=O)C1CC1` [CBK282006]: 90.5%; for `CCCC(=O)NCc1ccc(-c2cc(CN(C)C)n(C)n2)cc1` [CBK282007]: 98.4%; for `CN1CC(C(=O)NCC(c2ccccc2)N2CCCCCC2)CC1=O` (stereo not shown) [CBK282008]: 105%.

In the case of `Cc1nn(CCNC(=O)C(c2ccc(F)cc2)N(C)C)c(C)c1C` (stereo not shown) [CBK282009], the viability at 28.5 h, 10 µM amounted to 89.2%. As to `Cc1cc(C)n(C(C)CC(=O)N2CCN(C)CC2c2ccccc2)n1` (stereo not shown) [CBK282014], the viability at 28.5 h, 10 µM worked out at 92.2%. As to `CCN1CC(C(=O)N2CCN(C)CC2c2ccccc2)CC1=O` (stereo not shown) [CBK282026], the viability at 28.5 h, 10 µM was found to be 92.2%.

As to `CCN1CC(C(=O)N2CCCC(COc3ccc(F)cc3)C2)CC1=O` (stereo not shown) [CBK282028], the viability at 28.5 h, 10 µM stood at 85.3%.

Consider `CCC(NC(=O)C(C)n1cc(Cl)cn1)c1ccc(OC)cc1` (stereo not shown) [CBK282029], for which the viability at 28.5 h, 10 µM is 95.3%.

Regarding `CN(CC1OCCc2ccccc21)C(=O)CCC1CCCO1` (stereo not shown) [CBK282030], the viability at 28.5 h, 10 µM was found to be 87.1%.

As to `O=C(CCC1CCCO1)N1CCCC(COc2ccc(F)cc2)C1` (stereo not shown) [CBK282031], the viability at 28.5 h, 10 µM turned out to be 97.7%.

In the case of `CCc1cc(C(=O)N2CCC(Oc3ccc(F)cc3)CC2)n(C)n1` [CBK282034], the viability at 28.5 h, 10 µM came to 86.5%.

Usually viability stands for a read-out of living cells in per cent, often relative to untreated cells.
